Results as given in paper PMC8588041, “Protective Role of Flavonoids against Intestinal Pro-Inflammatory Effects of Silver Nanoparticles” (Molecules, 2021).
Where two headings read alike, the source gives them in different places.

Tests used:
Caco-2 cell line [1] = assay: MTT reduction assay, cytotoxicity in Caco-2 cells; settings: for Selected Maximum Concentration (maximum non-cytotoxic flavonoid concentration): Caco-2 cells, 24 h, MTT assay, tested 3.13 to 50 μM; for Protection against AgNP-induced cytotoxicity: 24 h co-incubation with 20 or 50 μg/mL AgNP (4 and 19 nm), non-toxic flavonoid concentrations (quercetagetin 50 µM)
Method: Cells were grown in a 5% CO2 atmosphere at 37 °C. For each experiment, the cells were used when reaching 80% of confluence, which represented 3 to 5 days of differentiation. Then, the proliferating Caco-2 cells were treated 24 h after seeding.
The MTT reduction assay was used to determine the cytotoxicity of PEI coated-AgNP of two sizes (4 and 19 nm) in the Caco-2 cell line. […] After the exposure period, the culture medium was replaced with fresh medium containing 0.5 mg/mL MTT and the cells were further incubated for 2 h. The resulting dark purple crystals of formazan were then dissolved in DMSO and the absorbance of the corresponding solution, which was directly proportional to the number of living cells, was measured in an automatic plate reader set at a test wavelength of 570 nm and a reference wavelength of 620 nm.

human neutrophils [2] = assay: Neutrophil oxidative burst, DHR oxidation; settings: for Effect of inhibitors on AgNP-induced DHR oxidation: DPI 10 µM, VAS2870 25 µM, Gö6983 1 µM, added with AgNP 10 µg/mL (4 nm and 19 nm); for Percentage of inhibition at the highest tested concentration: 25 μM flavonoid
Method: All patient-related procedures and protocols were performed in accordance with the Declaration of Helsinki and approved by the Ethics Committee of Centro Hospitalar do Porto. After written informed consent was obtained, venous blood from healthy human volunteers was collected by antecubital phlebotomy into vacuum tubes with K3EDTA. The isolation of human neutrophils was performed by the density gradient centrifugation method, as previously reported by our research group. Cells were resuspended in Tris buffer (25 mM Tris, 1.26 mM CaCl2, 5.37 mM KCl, 0.81 mM MgSO4, 140 mM NaCl and 5.55 mM D-Glucose) and the cell viability and cell yield (number of cells/mL) were determined by the trypan blue exclusion method using a Neubauer chamber.
The measurement of neutrophil oxidative burst was performed by monitoring the oxidation of DHR, by neutrophil-generated reactive species. Neutrophils (3 × 10^6 cells/mL) were incubated in a humidified incubator, at 37 °C, with 4 nm or 19 nm AgNP (0–10 µg/mL) alone or with flavonoids (0–25 µM) followed by DHR (10 µM) for 1 h 30 min.
The NADPH oxidase inhibitors, DPI (10 µM) and VAS2870 (25 µM), and the protein kinase C (PKC) inhibitor, Gö6983 (1 µM), were also tested, by their concomitant addition with AgNP (10 µg/mL). The fluorescence was measured in a microplate reader (λexcitation = 507 ± 20 nm/λemmission = 529 ± 20 nm).

Caco-2 cell line [3] = assay: Nitrite measurement by Griess reaction (•NO production); assay type: cell-based, human; settings: for Prevention of AgNP-induced •NO production: flavonoids at maximum non-cytotoxic concentrations, Caco-2, 24 h, data not shown
Method: Nitrite measurement was based on the colorimetric detection of the reaction product of nitrite with naphthylethylenediamine dihydrochloride. The concentration of nitrite, which reflects nitric oxide (^•NO) production, was measured in the cell-free supernatants collected from the Caco-2 cell line. […] After the incubation period, 150 μL of culture medium was collected and placed in 96-well plates. […] The absorbance was measured at 570 nm using an automatic plate reader.

human neutrophils [4] = assay: Neutrophil viability, PI staining flow cytometry; assay type: cell-based; settings: PEI 10 μg/mL, AgNO3 3 μg/mL, data not shown
Method: Following exposure, cells were centrifuged (400× g at 20 °C, during 5 min) and the supernatant was discarded. The pellet was resuspended in DPBS solution and centrifuged (200g at 20 °C, during 5 min). After centrifugation, the pellet was resuspended with 100 μL propidium iodide solution (1 µg/mL) and incubated for 15 min in the dark. After this time, 400 μL of DPBS buffer was added and the fluorescence was measured in flow cytometer. To restrict the analysis to neutrophils only, a polygon gate was set according to their light scattering properties (in a forward vs. side scatter plot) excluding cell debris and other blood cells. Fluorescence signals for at least 10,000 cells were collected in logarithmic mode and the data were analyzed using C Flow (Accuri®) software (BD, Becton, Dickinson and Company, Franklin Lakes, NJ, USA).

Caco-2 cell line [5] = assay: Annexin V-FITC versus propidium iodide flow cytometry (cell death); settings: for Apoptosis-preventive effect (apoptotic population versus AgNP controls): flavonoid 25 μM co-incubated 24 h with 4 nm and 19 nm AgNP 20 µg/mL, Caco-2
Method: The evaluation of cell death was analyzed by flow cytometry, following simultaneous staining with propidium iodide (PI) and Annexin V labeled with fluorescein isothiocyanate (FITC), according to a previously described method, using the Annexin V-FITC Apoptosis Detection Kit. Briefly, 5 × 10^5 cells/well were seeded in 6 well plates and exposed to 20 μg/mL AgNP (4 and 19 nm) and/or to the flavonoids quercetin or quercetagetin (25 μM) for 24 h. […] After the 24 h exposure, cell supernatants were discarded, and cells were washed with DPBS buffer and detached from cells plates with trypsin:EDTA solution. Individualized cells were counted in a Neubauer chamber, and after DPBS wash, cells were resuspended at a density of 1 × 10^6 cells/mL binding buffer provided by the kit. Subsequently, 1 × 10^5 cells were transferred to suitable cytometry tubes, and Annexin V-FITC and PI were added. The mixture was incubated for 15 min and at least 10,000 events were immediately read in a BD Accuri™ C6 Plus Flow Cytometer (BD biosciences, Becton, Franklin Lakes, NJ, USA). The green fluorescence corresponding to Annexin-V conjugated with FITC was followed in channel 1 (FL1) and plotted as a histogram of FL1 staining. Fluorescence due to the PI incorporation was followed in channel 3 (FL3).

Caco-2 cells = settings: cited from earlier work
[6] = Homo sapiens, Neutrophil, read-out: IC50 (Mean ± SEM), inhibition of AgNP 4 nm-induced oxidative burst, AgNP 4 nm, human neutrophils, DHR
[7] = Homo sapiens, Neutrophil, read-out: IC50 (Mean ± SEM), inhibition of AgNP 19 nm-induced oxidative burst, AgNP 19 nm, human neutrophils, DHR
[8] = read-out: IC50 (Mean ± SEM), inhibition of AgNP 4 nm-induced oxidative burst, AgNP 4 nm, human neutrophils, DHR

## O=c1c(O)c(-c2ccc(O)cc2O)oc2cc(O)cc(O)c12 [Morin]
Caco-2 cell line [1]
  Selected Maximum Concentration (maximum non-cytotoxic flavonoid concentration): 50.0 µM
Human neutrophils [2]; [6]
  IC50: 1400 ± 400 nM
Human neutrophils [2]; [7]
  IC50: 1500 ± 400 nM

## c1ccc(Cn2nnc3c(Sc4nc5ccccc5o4)ncnc32)cc1 [VAS2870, reference compound]
Human neutrophils [2]
  Effect of inhibitors on AgNP-induced DHR oxidation: decreased DHR oxidation induced by 4nm and 19 nm AgNP

## COc1ccc2c(c1)c(C1=C(c3c[nH]c4ccccc34)C(=O)NC1=O)cn2CCCN(C)C [Gö6983, 3-[1-[3-(dimethylamino)propyl]-5-methoxy-1H-indol-3-yl]-4-(1H-indol-3-yl)-1H-pyrrole-2,5-dione, reference compound]
Human neutrophils [2]
  Effect of inhibitors on AgNP-induced DHR oxidation: prevented the activation of neutrophil oxidative burst induced by AgNP

## O=c1c(O)c(-c2cc(O)c(O)c(O)c2)oc2cc(O)cc(O)c12 [Myricetin]
Caco-2 cell line [1]
  Selected Maximum Concentration (maximum non-cytotoxic flavonoid concentration): 50.0 µM
Human neutrophils [2]; [6]
  IC50: 2300 ± 100 nM
Human neutrophils [2]; [7]
  IC50: 3100 ± 200 nM

## O=[N+]([O-])[O-].[Ag+] [AgNO3, Silver nitrate, reference compound]
Caco-2 cell line [3]; 9 μg/mL AgNO3, 24 h, Caco-2
  •NO production: induced a significant production of ^•NO
Human neutrophils [4]
  Neutrophil viability: did not affect neutrophil viability
Human neutrophils [2]; PEI 10 μg/mL, AgNO3 3 μg/mL, data not shown
  Neutrophil oxidative burst: did not affect neutrophil oxidative burst
Caco-2 cell line [5]; PEI 20 μg/mL, AgNO3 4.5 μg/mL, Caco-2, 24 h, data not shown
  Cell viability (Annexin V/PI): did not induce significant alterations in cell viability

## O=c1c(O)c(-c2ccc(O)c(O)c2)oc2cc(O)c(O)c(O)c12 [Quercetagetin]
Caco-2 cell line [1]
  Protection against AgNP-induced cytotoxicity: prevented the cytotoxic effects of the two sizes of AgNP
  Selected Maximum Concentration (maximum non-cytotoxic flavonoid concentration): 50.0 µM
Caco-2 cell line [1]; listed as quercetagetin
  Protection against AgNP-induced cytotoxicity: significantly reduced the cell death induced by AgNP of 4 and 19 nm
Caco-2 cell line [3]
  Prevention of AgNP-induced •NO production: neither quercetin nor quercetagetin prevented AgNP-induced ^•NO production
Human neutrophils [2]; [6]
  IC50: < 1000 nM
Human neutrophils [2]; [7]
  IC50: 3000 ± 200 nM
Human neutrophils [2]; [8]
  IC50: 530 ± 60 nM
Caco-2 cell line [5]; co-treatment with 4 nm AgNP (20 μg/mL), Caco-2, 24 h
  Percentage of apoptotic cells on co-treatment: increased the percentage of apoptotic cells
Caco-2 cell line [5]
  Apoptosis-preventive effect (apoptotic population versus AgNP controls): did not significantly decrease the apoptotic population

## O=c1c(O)c(-c2ccc(O)c(O)c2)oc2c(O)c(O)cc(O)c12 [Gossypetin]
Human neutrophils [2]; Homo sapiens, Neutrophil, read-out: IC50 (Mean ± SEM), inhibition of AgNP 4 nm-induced oxidative burst
  IC50: 2100 ± 300 nM
Human neutrophils [2]; Homo sapiens, Neutrophil, read-out: IC50 (Mean ± SEM), inhibition of AgNP 19 nm-induced oxidative burst
  IC50: 4500 ± 1200 nM

## c1ccc2c(c1)[I+]c1ccccc1-2 [DPI, diphenyleneiodonium chloride, reference compound]
Human neutrophils [2]
  Effect of inhibitors on AgNP-induced DHR oxidation: decreased DHR oxidation induced by 4nm and 19 nm AgNP

## O=c1c(O)c(-c2ccc(O)c(O)c2)oc2cc(O)cc(O)c12 [Quercetin]
Caco-2 cell line [1]
  Protection against AgNP-induced cytotoxicity: partially prevented AgNP cytotoxicity
  Selected Maximum Concentration (maximum non-cytotoxic flavonoid concentration): 25.0 µM
Caco-2 cell line [1]; listed as quercetin
  Protection against AgNP-induced cytotoxicity: significantly reduced the cell death induced by AgNP of 4 and 19 nm
Caco-2 cells; 10 and 50 µM, Caco-2 cells treated with AgNP < 20 nm (30–90 μg/mL)
  Reversal of loss of viability induced by AgNP: most effectively reversed the loss of viability induced by AgNP
Caco-2 cells; quercetin 50 µM, AgNP ≥45 μg/mL, ref Martirosyan et al.
  Reversal of toxicity induced by AgNP: successfully reverted the toxicity induced by AgNP
Caco-2 cell line [3]
  Prevention of AgNP-induced •NO production: neither quercetin nor quercetagetin prevented AgNP-induced ^•NO production
Human neutrophils [2]; [6]
  IC50: < 1000 nM
Human neutrophils [2]; [7]
  IC50: 3100 ± 600 nM
Human neutrophils [2]; [8]
  IC50: 940 ± 90 nM
Caco-2 cell line [5]
  Apoptosis-preventive effect (apoptotic population versus AgNP controls): reversed the pro-apoptotic effect of AgNP

## COc1ccc(-c2cc(=O)c3c(O)cc(O)cc3o2)cc1O [Diosmetin]
Human neutrophils [2]; AgNP 4 nm, human neutrophils, DHR
  Percentage of inhibition at the highest tested concentration: 37 ± 3 %
Human neutrophils [2]; AgNP 19 nm, human neutrophils, DHR
  Percentage of inhibition at the highest tested concentration: 37 ± 7 %
Human neutrophils [2]; Homo sapiens, Neutrophil, read-out: IC50, inhibition of AgNP-induced neutrophil oxidative burst, AgNP of 4 and 19 nm, human neutrophils, DHR
  IC50: > 25000 nM

## O=c1cc(-c2ccc(O)c(O)c2)oc2cc(O)cc(O)c12 [Luteolin]
Caco-2 cell line [1]
  Selected Maximum Concentration (maximum non-cytotoxic flavonoid concentration): 12.5 µM
Human neutrophils [2]; [6]
  IC50: 1300 ± 200 nM
Human neutrophils [2]; [7]
  IC50: 1300 ± 200 nM
